Assay results published in patent US8846947B2, “Benzimidazoles and related analogs as sirtuin modulators” (GlaxoSmithKline LLC, priority 2008, dated 2014).
Read-outs that look alike come from different tables or passages of the source.

Target: T1, SIRT1 (Homo sapiens, UniProt Q96EB6)
T1 sequence (Q96EB6 1-747): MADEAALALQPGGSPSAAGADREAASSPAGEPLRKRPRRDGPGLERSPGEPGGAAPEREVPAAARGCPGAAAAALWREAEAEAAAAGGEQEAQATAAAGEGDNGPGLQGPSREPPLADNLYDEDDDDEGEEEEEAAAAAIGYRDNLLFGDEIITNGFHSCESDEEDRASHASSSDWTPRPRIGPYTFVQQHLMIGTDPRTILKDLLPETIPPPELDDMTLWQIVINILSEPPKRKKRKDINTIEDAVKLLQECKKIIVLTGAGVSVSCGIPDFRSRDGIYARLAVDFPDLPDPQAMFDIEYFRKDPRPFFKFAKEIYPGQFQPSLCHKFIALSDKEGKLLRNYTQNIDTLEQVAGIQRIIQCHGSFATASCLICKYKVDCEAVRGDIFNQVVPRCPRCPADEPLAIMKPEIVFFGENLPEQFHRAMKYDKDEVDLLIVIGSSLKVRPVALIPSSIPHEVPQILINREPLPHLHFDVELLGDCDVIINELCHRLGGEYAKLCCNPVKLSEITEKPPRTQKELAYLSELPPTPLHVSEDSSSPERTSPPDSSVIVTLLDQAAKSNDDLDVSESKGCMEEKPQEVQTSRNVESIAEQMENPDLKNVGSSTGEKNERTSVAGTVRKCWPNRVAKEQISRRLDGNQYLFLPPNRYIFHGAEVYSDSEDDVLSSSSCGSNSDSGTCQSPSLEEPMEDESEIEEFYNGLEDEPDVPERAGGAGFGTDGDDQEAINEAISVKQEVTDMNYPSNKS
Test: Mass spectrometry based SIRT1 deacetylase activation assay (acetylated p53-derived peptide substrate)
Type: biochemical

[1] = 0.5 μM peptide substrate, 120 μM βNAD+, 10 nM SIRT1, 25 min at 25° C.
[2] = 0.5 μM peptide substrate, 120 μM βNAD+, 10 nM SIRT1, 25 min at 25° C., read-out: EC1.5
[3] = 0.5 μM peptide substrate, 120 μM βNAD+, 10 nM SIRT1, 25 minutes at 25° C.

Row | Structure (SMILES) | Fold Act. (percent maximum fold activation) [1] | EC1.5 [2] [nM] | EC1.5 [3] | Fold Act. (percent maximum fold activation) [3] | EC1.5 | Fold Act. (percent maximum fold activation)
1 | Cc1cnc(NC(=O)c2cncc3nc(-c4ccc(OC[C@@H](O)CO)cc4C(F)F)[nH]c23)s1 [Compound 772] | – | – | A (EC1.5<1.0 uM) | A (Fold activation >200%) | – | –
2 | O=C(Nc1cccc(OC[C@@H](O)CO)c1)c1cccc2[nH]c(-c3cc(F)ccc3C(F)F)nc12 [Compound 720] | – | – | A (EC1.5<1.0 uM) | A (Fold activation >200%) | – | –
3 | O=C(Nc1cccc2[nH]c(-c3cc(F)ccc3C(F)(F)F)nc12)c1cccnc1 [Compound 386] | – | – | – | – | B (EC1.5 1-25 uM) | A (Fold activation >200%)
4 | O=C(Nc1ccccn1)c1cc(F)cc2[nH]c(-c3ccc(OC[C@H](O)CO)cc3C(F)F)nc12 [Compound 830] | – | – | A (EC1.5<1.0 uM) | A (Fold activation >200%) | – | –
5 | O=C(Nc1ccncn1)c1cccc2[nH]c(-c3cccc(C(F)(F)F)c3)nc12 [Compound 277] | – | – | – | – | B (EC1.5 1-25 uM) | A (Fold activation >200%)
6 | Cn1nc(C(F)(F)F)c(-c2nc3c(C(=O)Nc4cccnc4)cccc3[nH]2)c1Cl [Compound 328] | – | – | – | – | A (EC1.5<1.0 uM) | A (Fold activation >200%)
7 | O=C(Nc1ncccn1)c1cccc2[nH]c(-c3cccc(C(F)(F)F)c3)nc12 [Compound 241] | – | – | – | – | C (EC1.5 >25 uM) | B (Fold Activation <200%)
8 | O=C(Nc1cccnn1)c1cc(N2CCOCC2)cc2[nH]c(-c3ccc(F)cc3C(F)F)nc12 [Compound 752] | – | – | A (EC1.5<1.0 uM) | A (Fold activation >200%) | – | –
9 | O=C(Nc1cccc2[nH]c(-c3ccccc3C(F)(F)F)nc12)c1ccccn1 [Compound 364] | – | – | – | – | B (EC1.5 1-25 uM) | A (Fold activation >200%)
10 | O=C(NC1CCNCC1)c1cccc2[nH]c(-c3ccc(Cl)cc3C(F)(F)F)nc12 [Compound 453] | B (Fold Activation <200%) | > 25000 | – | – | – | –
11 | O=C(Nc1nc(CN2CCOCC2)cs1)c1cccc2[nH]c(-c3ccc(Cl)cc3C(F)F)nc12 [Compound 849] | – | – | A (EC1.5<1.0 uM) | A (Fold activation >200%) | – | –
12 | O=C(Nc1nccs1)c1cccc2[nH]c(-c3ccncc3Cl)nc12 [Compound 294] | – | – | – | – | B (EC1.5 1-25 uM) | A (Fold activation >200%)
13 | Cc1cc(OC[C@H](O)CO)ccc1-c1nc2c(C(=O)Nc3nccs3)cccc2[nH]1 [Compound 793] | – | – | A (EC1.5<1.0 uM) | A (Fold activation >200%) | – | –
14 | CCCN1CCCc2ccc(-c3nc4c(C(=O)Nc5nccs5)cccc4[nH]3)cc21 [Compound 425] | A (Fold activation >200%) | 1000 to 25000 | – | – | – | –
15 | O=C(Nc1ccccn1)c1cccc2[nH]c(-c3ccc(Cl)cc3C(F)(F)F)nc12 [Compound 313] | – | – | – | – | A (EC1.5<1.0 uM) | A (Fold activation >200%)
16 | C[C@@H]1CN(c2cccc(-c3nc4c(C(=O)Nc5ccccn5)cccc4[nH]3)c2)C[C@H](C)O1 [Compound 577] | A (Fold activation >200%) | < 1000 | – | – | – | –
17 | FC(F)(F)c1ccccc1-c1nc2c(Nc3ccccn3)cccc2[nH]1 [Compound 582] | B (Fold Activation <200%) | > 25000 | – | – | – | –

More lines, now with the values ahead:

Row | Fold Act. (percent maximum fold activation) [1] | EC1.5 [2] [nM] | EC1.5 [3] | Fold Act. (percent maximum fold activation) [3] | EC1.5 | Fold Act. (percent maximum fold activation) | Structure (SMILES)
18 | A (Fold activation >200%) | < 1000 | – | – | – | – | O=C(Nc1ccc(CN2CCCC2)cn1)c1cccc2[nH]c(-c3ccccc3C(F)(F)F)nc12 [Compound 541]
19 | A (Fold activation >200%) | 1000 to 25000 | – | – | – | – | O=C(Nc1ccccn1)c1cccc2[nH]c(-c3ccc(Cl)cc3C(F)F)nc12 [Compound 564]
20 | A (Fold activation >200%) | < 1000 | – | – | – | – | Cc1cnc(NC(=O)c2cccc3[nH]c(-c4c(C(F)(F)F)nn(C)c4Cl)nc23)s1 [Compound 495]
21 | – | – | A (EC1.5<1.0 uM) | A (Fold activation >200%) | – | – | O=C(Nc1ccccn1)c1cc(F)cc2nc(-c3ccc(Cl)cc3C(F)F)[nH]c12 [Compound 823]
22 | – | – | – | – | A (EC1.5<1.0 uM) | B (Fold Activation <200%) | Cc1cc(-c2nc3c(C(=O)Nc4nccs4)cccc3[nH]2)no1 [Compound 230]
23 | – | – | A (EC1.5<1.0 uM) | A (Fold activation >200%) | – | – | O=C(Nc1cccc(OC[C@@H](O)CO)c1)c1cncc2[nH]c(-c3ccc(Cl)cc3C(F)(F)F)nc12 [Compound 738]
24 | – | – | – | – | C (EC1.5 >25 uM) | B (Fold Activation <200%) | O=C(Nc1nccs1)c1cccc2[nH]c(-c3cccc(C(F)(F)F)c3F)nc12 [Compound 217]
25 | – | – | B (EC1.5 1-25 uM) | A (Fold activation >200%) | – | – | O=C(Nc1ccccn1)c1cccc2[nH]c(-c3ccc(N4CC[C@@H](F)C4)cc3C(F)(F)F)nc12 [Compound 609]
26 | – | – | B (EC1.5 1-25 uM) | A (Fold activation >200%) | – | – | CS(=O)(=O)c1ccc(F)cc1-c1nc2c(C(=O)Nc3cccnc3)cccc2[nH]1 [Compound 659]
27 | A (Fold activation >200%) | 1000 to 25000 | – | – | – | – | Cc1cnc(NC(=O)c2cccc3[nH]c(-c4ccccc4OCCN4CCOCC4)nc23)s1 [Compound 475]
28 | – | – | – | – | B (EC1.5 1-25 uM) | A (Fold activation >200%) | O=C(Nc1nccs1)c1cccc2[nH]c(-c3cc(F)cc(Cl)c3)nc12 [Compound 220]
29 | – | – | B (EC1.5 1-25 uM) | A (Fold activation >200%) | – | – | O=C(Nc1cccnn1)c1cncc2[nH]c(-c3ccc(F)cc3C(F)(F)F)nc12 [Compound 696]
30 | – | – | – | – | A (EC1.5<1.0 uM) | A (Fold activation >200%) | O=C(Nc1ccncc1)c1cccc2[nH]c(-c3ccc(Cl)cc3C(F)(F)F)nc12 [Compound 315]
31 | – | – | C (EC1.5 >25 uM) | B (Fold Activation <200%) | – | – | c1ccc(-n2nccc2-c2nc3c(NCc4cccnc4)cccc3[nH]2)cc1 [Compound 671]
32 | A (Fold activation >200%) | < 1000 | – | – | – | – | Cn1cc(-c2nc3c(C(=O)Nc4nccs4)cccc3[nH]2)c(C(F)(F)F)n1 [Compound 477]
33 | – | – | – | – | A (EC1.5<1.0 uM) | A (Fold activation >200%) | O=C(Nc1cnccn1)c1cccc2[nH]c(-c3cccc(OC(F)(F)F)c3)nc12 [Compound 205]
34 | A (Fold activation >200%) | < 1000 | – | – | – | – | Cc1cc(NC(=O)c2cccc3[nH]c(-c4ccccc4C(F)(F)F)nc23)no1 [Compound 481]
35 | – | – | – | – | A (EC1.5<1.0 uM) | A (Fold activation >200%) | Cc1cc(NC(=O)c2cccc3[nH]c(-c4cc(F)ccc4C(F)(F)F)nc23)n(C)n1 [Compound 380]
36 | A (Fold activation >200%) | < 1000 | – | – | – | – | Cc1cnc(NC(=O)c2cccc3[nH]c(-c4ccc(N5CCOCC5)cc4C(F)F)nc23)s1 [Compound 552]
